Test results: US12195482B1 (Arcus Biosciences, Inc., priority 2022, dated 2025)

Target: T1, Axl (Homo sapiens, UniProt P30530)
T1 sequence (P30530 26-894): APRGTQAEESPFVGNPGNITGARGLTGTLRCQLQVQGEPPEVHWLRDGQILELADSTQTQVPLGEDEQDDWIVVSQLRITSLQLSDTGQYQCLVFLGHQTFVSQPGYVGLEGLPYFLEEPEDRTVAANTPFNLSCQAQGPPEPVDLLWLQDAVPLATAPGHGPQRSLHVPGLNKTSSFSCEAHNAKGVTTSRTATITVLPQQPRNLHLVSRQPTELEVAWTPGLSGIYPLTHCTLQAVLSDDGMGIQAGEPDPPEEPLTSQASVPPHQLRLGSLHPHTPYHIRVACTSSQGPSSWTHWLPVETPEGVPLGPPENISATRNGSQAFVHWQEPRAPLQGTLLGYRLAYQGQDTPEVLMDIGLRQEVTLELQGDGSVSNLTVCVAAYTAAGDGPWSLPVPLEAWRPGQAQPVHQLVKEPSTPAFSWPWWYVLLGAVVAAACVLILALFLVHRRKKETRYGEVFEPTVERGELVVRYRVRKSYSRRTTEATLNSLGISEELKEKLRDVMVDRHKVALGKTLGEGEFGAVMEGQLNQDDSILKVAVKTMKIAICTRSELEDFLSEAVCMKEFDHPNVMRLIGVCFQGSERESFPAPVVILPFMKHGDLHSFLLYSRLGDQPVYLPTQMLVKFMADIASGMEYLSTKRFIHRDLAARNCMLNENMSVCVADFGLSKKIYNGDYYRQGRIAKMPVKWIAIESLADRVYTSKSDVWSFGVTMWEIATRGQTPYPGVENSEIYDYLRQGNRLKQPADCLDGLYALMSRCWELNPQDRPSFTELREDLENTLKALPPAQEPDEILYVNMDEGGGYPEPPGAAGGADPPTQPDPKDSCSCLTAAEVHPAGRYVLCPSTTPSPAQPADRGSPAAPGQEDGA
Assay: Axl NanoBRET intracellular kinase assay (intracellular binding, K-5 tracer displacement)
Parameters: host or cells: HEK-293
Settings: HEK-293 cells transfected with Axl-NanoLuc, 0.35 μM K-5 NanoBRET tracer; read-out: Cell Binding AXL
Description: Measuring Intracellular Binding of Axl Inhibitors
Axl NanoBRET™ intracellular kinase assay (Promega, N2540) was performed according to manufacturer's recommendation. In brief, HEK-293 cells are transiently transfected with Ax1-NanoLuc fusion vector (Promega, NV1071), utilizing Fugene HD transfection reagent (Promega, E2311) a day before experiment following manufacturer's recommendation.
The day of the assay, the cells were collected and resuspended in Opti-MEM media (ThermoFisher, 31985070) at 2e5 cells/mL concentration. Testing compounds were serial diluted and dispensed into a white 384 well polystyrene plate at 200 nL in 100% DMSO. 40 μL of resuspended cells is then added per well for a final condition of 8K cells/well with 0.5% DMSO. After one-hour compound pre-incubation at 37° C. and 5% CO2, cells were further incubated with 0.35 μM K-5 NanoBRET tracer for two-hours at 37° C. and 5% CO2. […] of 3× substrate plus Inhibitor solution was prepared according to kits manual and added to the cells followed by a 30 second pulse centrifugation spin. The plate was then immediately read utilizing an Envision (Perkin Elmer) plate reader. The BRET signal is measured by taking the ratio of the emissions reading at 610 nm and 450 nm. Compound binding is based on the decrease BRET signal caused by the displacement of the K-5 tracer. […] ICso value of compounds was determined by 4-parameter non-linear regression fitting of percent activity in GraphPad Prism software.

| SMILES | IC50 [nM] |
| --- | --- |
| Cn1ncnc1-c1ccc(-c2n[nH]c3ncc(-c4ccc5c(c4)CC[C@@H](N4C6COCC4C6)CC5)cc23)cc1 [Example 110, 6-[(7S)-2-{3-[4-(1-Methyl-1H-1,2,4-triazol-5-yl)phenyl]-2H-pyrazolo[3,4-b]pyridin-5-yl}-6,7,8,9-tetrahydro-5H-benzo[7]annulen-7-yl]-3-oxa-6-azabicyclo[3.1.1]heptane] | < 100 |
| c1cncc(-c2ccc(-c3c[nH]c4ncc(-c5ccc6c(c5)CC[C@@H](N5C7COCC5C7)CC6)cc34)cc2)c1 [Example 158, 6-[(7S)-2-{3-[4-(Pyridin-3-yl)phenyl]-1H-pyrrolo[2,3-b]pyridin-5-yl}-6,7,8,9-tetrahydro-5H-benzo[7]annulen-7-yl]-3-oxa-6-azabicyclo[3.1.1]heptane] | 100 to 1000 |
| CN(C)C(=O)c1cccnc1-c1ccc(-c2n[nH]c3ncc(-c4ccc5c(c4)CC[C@@H](N4C6COCC4C6)CC5)cc23)cc1 [Example 167, N,N-Dimethyl-2-(4-{5-[(7S)-7-{3-oxa-6-azabicyclo[3.1.1]heptan-6-yl}-6,7,8,9-tetrahydro-5H-benzo[7]annulen-2-yl]-1H-pyrazolo[3,4-b]pyridin-3-yl}phenyl)pyridine-3-carboxamide] | < 100 |
| CC(C)(O)c1cccnc1-c1ccc(-c2n[nH]c3ncc(-c4ccc5c(c4)CC[C@@H](N4C6COCC4C6)CC5)cc23)cc1 [Example 10, 2-[2-(4-{5-[(7S)-7-{3-Oxa-6-azabicyclo[3.1.1]heptan-6-yl}-6,7,8,9-tetrahydro-5H-benzo[7]annulen-2-yl]-1H-pyrazolo[3,4-b]pyridin-3-yl}phenyl)pyridin-3-yl]propan-2-ol] | < 100 |
| C[C@@H]1CCCN1[C@@]1(C)CCc2ccc(-c3cnc4[nH]nc(-c5ccc(-c6ncnn6C)cc5)c4c3)cc2CC1 [Example 112, 1-Methyl-5-(4-{5-[(7S)-7-methyl-7-[(2R)-2-methylpyrrolidin-1-yl]-6,7,8,9-tetrahydro-5H-benzo[7]annulen-2-yl]-1H-pyrazolo[3,4-b]pyridin-3-yl}phenyl)-1H-1,2,4-triazole] | < 100 |
| CC(C)(O)c1cccnc1-c1ccc(-c2c[nH]c3ncc(-c4ccc5c(c4)CC[C@@H](N4C6COCC4C6)CC5)cc23)cc1 [Example 95, 2-[2-(4-{5-[(7S)-7-{3-Oxa-6-azabicyclo[3.1.1]heptan-6-yl}-6,7,8,9-tetrahydro-5H-benzo[7]annulen-2-yl]-1H-pyrrolo[2,3-b]pyridin-3-yl}phenyl)pyridin-3-yl]propan-2-ol] | < 100 |
| c1ccc(-n2cc(-c3n[nH]c4ncc(-c5ccc6c(c5)CC[C@@H](N5C7COCC5C7)CC6)cc34)cn2)nc1 [Example 168, 6-[(7S)-2-{3-[1-(Pyridin-2-yl)-1H-pyrazol-4-yl]-1H-pyrazolo[3,4-b]pyridin-5-yl}-6,7,8,9-tetrahydro-5H-benzo[7]annulen-7-yl]-3-oxa-6-azabicyclo[3.1.1]heptane] | < 100 |
| Cc1cccnc1-c1ccc(-c2n[nH]c3ncc(-c4ccc5c(c4)CC[C@@](C)(N4CCC[C@H]4C)CC5)cc23)cc1 [Example 163, 3-Methyl-2-(4-{5-[(7S)-7-methyl-7-[(2R)-2-methylpyrrolidin-1-yl]-6,7,8,9-tetrahydro-5H-benzo[7]annulen-2-yl]-2H-pyrazolo[3,4-b]pyridin-3-yl}phenyl)pyridine] | < 100 |
| Cn1cnnc1-c1ccc(-c2n[nH]c3ncc(-c4ccc5c(c4)CC[C@@H](N4C6COCC4C6)CC5)cc23)cc1 [Example 169, 6-[(7S)-2-{3-[4-(4-Methyl-4H-1,2,4-triazol-3-yl)phenyl]-1H-pyrazolo[3,4-b]pyridin-5-yl}-6,7,8,9-tetrahydro-5H-benzo[7]annulen-7-yl]-3-oxa-6-azabicyclo[3.1.1]heptane] | < 100 |
| CN(C)C(=O)c1cccc(-c2ccc(-c3n[nH]c4ncc(-c5ccc6c(c5)CC[C@@H](N5C7COCC5C7)CC6)cc34)cc2)n1 [Example 94, N,N-Dimethyl-6-(4-{5-[(7S)-7-{3-oxa-6-azabicyclo[3.1.1]heptan-6-yl}-6,7,8,9-tetrahydro-5H-benzo[7]annulen-2-yl]-2H-pyrazolo[3,4-b]pyridin-3-yl}phenyl)pyridine-2-carboxamide] | < 100 |
| C[C@@H]1CCCN1[C@@]1(C)CCc2ccc(-c3cnc4[nH]cc(-c5ccc(-c6ccccn6)cc5)c4c3)cc2CC1 [Example 156, 2-(4-{5-[(7S)-7-Methyl-7-[(2R)-2-methylpyrrolidin-1-yl]-6,7,8,9-tetrahydro-5H-benzo[7]annulen-2-yl]-1H-pyrrolo[2,3-b]pyridin-3-yl}phenyl)pyridine] | < 100 |
| Cc1cccnc1-c1ccc(-c2c[nH]c3ncc(-c4ccc5c(c4)CC[C@@H](N4CCCC4)CC5)cc23)cc1 [Example 173, 3-Methyl-2-(4-{5-[(7S)-7-(pyrrolidin-1-yl)-6,7,8,9-tetrahydro-5H-benzo[7]annulen-2-yl]-1H-pyrrolo[2,3-b]pyridin-3-yl}phenyl)pyridine] | < 100 |
| Cc1cncnc1-c1ccc(-c2n[nH]c3ncc(-c4ccc5c(c4)CC[C@@H](N4C6COCC4C6)CC5)cc23)cc1 [Example 174, 6-[(7S)-2-{3-[4-(5-Methylpyrimidin-4-yl)phenyl]-1H-pyrazolo[3,4-b]pyridin-5-yl}-6,7,8,9-tetrahydro-5H-benzo[7]annulen-7-yl]-3-oxa-6-azabicyclo[3.1.1]heptane] | < 100 |
| CN(C)C(=O)c1cccnc1-c1ccc(-c2c[nH]c3ncc(-c4ccc5c(c4)CC[C@@H](N4C6COCC4C6)CC5)cc23)cc1 [Example 165, N,N-Dimethyl-2-(4-{5-[(7S)-7-{3-oxa-6-azabicyclo[3.1.1]heptan-6-yl}-6,7,8,9-tetrahydro-5H-benzo[7]annulen-2-yl]-1H-pyrrolo[2,3-b]pyridin-3-yl}phenyl)pyridine-3-carboxamide] | < 100 |
| CN(C)C(=O)c1ccccc1-c1ccc(-c2c[nH]c3ncc(-c4ccc5c(c4)CC[C@@H](N4C6COCC4C6)CC5)cc23)cn1 [Example 170, N,N-Dimethyl-2-(5-{5-[(7S)-7-{3-oxa-6-azabicyclo[3.1.1]heptan-6-yl}-6,7,8,9-tetrahydro-5H-benzo[7]annulen-2-yl]-1H-pyrrolo[2,3-b]pyridin-3-yl}pyridin-2-yl)benzamide] | < 100 |
| Cc1nccnc1-c1ccc(-c2n[nH]c3ncc(-c4ccc5c(c4)CC[C@@H](N4C6COCC4C6)CC5)cc23)cc1 [Example 175, 6-[(7S)-2-{3-[4-(3-Methylpyrazin-2-yl)phenyl]-1H-pyrazolo[3,4-b]pyridin-5-yl}-6,7,8,9-tetrahydro-5H-benzo[7]annulen-7-yl]-3-oxa-6-azabicyclo[3.1.1]heptane] | < 100 |
| COc1cccnc1-c1ccc(-c2c[nH]c3ncc(-c4ccc5c(c4)CC[C@@H](N4C6COCC4C6)CC5)cc23)cc1 [Example 164, 6-[(7S)-2-{3-[4-(3-Methoxypyridin-2-yl)phenyl]-1H-pyrrolo[2,3-b]pyridin-5-yl}-6,7,8,9-tetrahydro-5H-benzo[7]annulen-7-yl]-3-oxa-6-azabicyclo[3.1.1]heptane] | < 100 |
| COc1cccnc1-c1ccc(-c2n[nH]c3ncc(-c4ccc5c(c4)CC[C@@H](N4C6COCC4C6)CC5)cc23)cc1 [Example 166, 6-[(7S)-2-{3-[4-(3-Methoxypyridin-2-yl)phenyl]-1H-pyrazolo[3,4-b]pyridin-5-yl}-6,7,8,9-tetrahydro-5H-benzo[7]annulen-7-yl]-3-oxa-6-azabicyclo[3.1.1]heptane] | < 100 |
